Where two headings read alike, the source gives them in different places.
Experiments:
IgG 4E10 = assay: Competitive ELISA (IC50): peptide competes with biotinylated 4E10-epitope peptide for IgG 4E10; assay type: binding, human
Protocol: IC50, were determined by competitive ELISA using a constant concentration of biotinylated peptide and IgG with a variable concentration of gp41 peptides. Microwells were coated overnight at 4° C. with 50 μl PBS containing neutravidin (Pierce; 4 μg/ml). […] A mixture of a biotinylated 4E10-epitope peptide, […](biotin)-NH2 (SEQ ID NO: 88) (20 nM), IgG 4E10 (0.2 nM), and the competing peptide analog (3-fold dilution series starting at 10 μM) in 0.4% non-fat dry milk, 0.02% Tween and PBS was incubated in a separate 96-well plate at 37° C. for 2 hours. After washing the blocked plate, the mixture of 4E10, biotinylated peptide and competing peptide was added to the wells. After 20 minutes at room temperature, the Wells were washed five times, and a 1:500 dilution of goat anti-human IgG F(ab′)2 HRP conjugate (Pierce) was added. Following incubation at RT for 40 minutes, the wells were washed five times, and developed by adding 50 μl of TMB solution (Pierce) according to the manufacturer's instructions. After ˜20 minutes, wells containing TMB solution were stopped by adding 50 μl of H2SO4 (2M) and the O.D. at 450 nm was read on a microplate reader (Molecular Devices). The concentration of competitor peptide corresponding to a half-maximal signal (IC50) was determined by interpolation of the resulting binding curve. Each peptide competitor was tested in duplicate in at least two separate experiments.
IC50s were determined by competitive ELISA using a constant concentration of biotinylated peptide and IgG with a variable concentration of gp41 peptides. Microwells were coated overnight at 4° C. with 50 μl PBS containing neutravidin (Pierce; 4 μg/ml). […] Meanwhile, a mixture of a biotinylated 4E10-peptide epitope, […](biotin)-NH2 (SEQ ID NO: 88), (20 nM), IgG 4E10 (0.2 nM), and the competing peptide analogue (3-fold dilution series starting at 10 μM) in 0.4% NFDM, 0.02% Tween and PBS was incubated in a separate 96-well plate at 37° C. for 2 h. After washing the blocked plate, the mixture of 4E10, biotinylated peptide and competing peptide was added to the wells. After 20 min at room temperature, the wells were washed five times, and a 1:500 dilution of goat anti-human IgG F(ab′)2 HRP conjugate (Pierce) was added. Following incubation at RT for 40 min, the wells were washed five times, and developed by adding 50 μl of H2SO4 (2 M), and the O.D. at 450 nm was read on a microplate reader (Molecular Devices). The concentration of competitor peptide corresponding to a half-maximal signal (IC50) was determined by interpolation of the resulting binding curve. Each peptide competitor was tested in duplicate in at least two separate experiments.

[1] = Circular dichroism spectroscopy of free peptides in solution (helicity); assay type: physicochemical; conditions: FIG. 48
Protocol: To determine whether the imposed constraints increased the helicity of the peptides, each one was analyzed in solution using circular dichroism (CD) spectroscopy (FIG. 48). An Aviv spectropolarimeter Model 203-02 was used, with cells of 0.1 cm in length, a wavelength step of 0.5 nm and a bandwidth of 1.0 nm. One to three scans were reported. The exact peptide concentrations were determined by UV measurements at 280 nm on a Gison UV detector, model 116.

Fab 4E10 = assay: Surface plasmon resonance (Biacore 2000), Fab 4E10 on CM5 chip; assay type: binding, human
Protocol: The affinitiefs of the peptide analogs for 4E10 were also measured by surface plasmon resonance. Surface plasmon resonance experiments were performed using a Biacore 2000 instrument (Uppsala, Sweden). Around 2,200 response units (RU) of Fab 4E10 were coated on CM5 chips. The carboxyl groups on the chip were activated with 1-ethyl-3-(3-dimethylaminopropyl)carbodiimide hydrochloride (EDC) and N-hydroxysuccinimide (NHS). Fifty micrograms of Fab were diluted in 10 mM sodium acetate pH 4.5; a flow rate of 5 μl/min was used. Unreacted carboxyl groups were blocked with 1M ethanolamine at pH 8.5. The control was treated in the same fashion without any antibody present. Different amounts of free peptides were then passed over the surfaces at 30 or 50 μl/min for 2 min. Regeneration was done in HPS-EP buffer, 0.25 NaCl (Biacore) in 10 minutes. The amount of salt was increased compared to the commercial buffer to reduce the non-specific binding. For data evaluation, the BIAevaluation software was used. RI and Rmax were controlled, double referencing were done (0 concentration and start point). Analyses were performed to achieve the best curve fitting and small chi^2 (<1).
Surface plasmon resonance experiments were performed using a Biacore 2000 instrument (Uppsala, Sweden).
Chip preparation: around 2,200 response units (RU) of Fab 4E10 were coated on CM5 chips. The carboxyl groups on the chip were activated with 1-ethyl-3-(3-dimethylaminopropyl) carbodiimide hydrochloride (EDC) and N-hydroxysuccinimide (NHS). Fifty micrograms of Fab was diluted in 10 mM sodium acetate pH 4.5; a flow rate of 5 μl/min was used. Unreacted carboxyl groups were blocked with 1M ethanolamine at pH 8.5. The control was treated in the same fashion without any antibody present.
Experiment: different amounts of free peptides were then passed over the surfaces at 30 or 50 μl/min for 2 min. Regeneration was done in HPS-EP buffer, 0.25 NaCl (Biacore) in 10 min. The amount of salt was increased compared to the commercial buffer to reduce the non-specific binding.
Data evaluation: the BIAevaluation software was used. RI and Rmax were controlled, double referencing were done (0 concentration and start point). Analyses were performed to achieve the best curve fitting and small chi^2 (<1).

Question: What does the source list for “NWFDITNWLWYIKKKK [Peptide 94-1, NWFDITNWLWYIKKKK-NH2]”?
Answer: improvement in 4E10 binding (IC50) over the starting peptide NWFDITNWLWKKKK-NH2 (IgG 4E10): 4 fold; improvement in IC50 compared to KGND (IgG 4E10): over 1000 fold; IC50 (IgG 4E10; Table 5, unconstrained peptide analogs, 4E10 binding, read-out: IC50): 0.01 µM; IC50 (IgG 4E10; Table 7, 4E10 peptide epitopes, read-out: IC50): 0.01 µM; higher affinity of 4E10 than to the original peptide KGND (IgG 4E10; as determined by surface plasmon resonance and ELISA): approximately 10^3 fold; IC50 (IgG 4E10; read-out: IC50 (4E10 binding, competitive ELISA)): 0.01 µM; helicity in solution by CD [1]: more helical than 84-1; higher affinity of 4E10 than to peptide 33-1 (Fab 4E10; Table 7): about 17 fold; koff (Fab 4E10; Table 7): 0.0138 s⁻¹; kon (Fab 4E10; Table 7): 691000 M⁻¹ s⁻¹; Kd (Fab 4E10; Table 7, 4E10 peptide epitopes, read-out: Kd): 0.02 µM; Kd (Fab 4E10; read-out: Kd (Biacore)): 0.018 µM

From US20110124842A1 (priority 2003, published 2011)
